Results from patent EP4578861A1, “NOVEL TRICYCLIC HETEROCYCLIC CARBALDEHYDE COMPOUND AND PHARMACEUTICAL COMPOSITION, CONTAINING SAME, FOR IRE1ALPHA INHIBITION” (Hanmi Pharm. Co., Ltd., priority 2022, dated 2024).

Tested on: spliced XBP1
Assay: Spliced XBP1 mRNA measurement test (RT-PCR, tunicamycin-induced ER stress in MCF-7 cells)
Type: cell-based
Conditions: Homo sapiens, MCF7, compound pre-treated for 1 hour, then 2 µg/mL tunicamycin for 6 or 24 hours, spliced XBP1 corrected by total XBP1
Experimental: With respect to these synthetic compounds, reverse transcription polymerase chain reaction (RT-PCR) experiments were conducted on MCF-7 cancer cells to confirm the effect thereof on the mRNA and protein amounts of spliced XBP1, which is the target of IRE endonuclease. A reverse transcription polymerase chain reaction is a test method in which RNA is extracted from cells, reverse transcriptase is used to make cDNA, and relative mRNA expression level is measured through a polymerase chain reaction.
Briefly, MCF-7 cells were seeded in a 12-well plate and cultured in an incubator including 5% CO2 for one day. On the next day, compounds, which were 10-fold serially diluted from 10,000 nM, were pre-treated for 1 hour, and then, treated with 2 µg/mL tunicamycin for 6 or 24 hours to induce endoplasmic reticulum stress, followed by cell lysis to obtain RNA. RNA was subjected to the procedure of RNeasy Kits (Qiagen, 74106), and 5 µg of RNA sample was dissolved in a sample including reverse transcriptase and dNTP, and reverse transcription reaction was performed with a thermal cycler. The amount of mRNA of each of spliced XBP1 and total XBP1 was measured by a polymerase chain reaction through real time PCR by mixing each cDNA sample with a PCR reaction mixture including a primer pair capable of binding specifically to each target and SYBR green dye. The expression level of spliced XBP1 was corrected by the total expression level of XBP1, and the relative expression levels of spliced XBP1 between samples were compared and analyzed.

Cc1c(CC(=O)N2CCN(C(C)C)CC2)c(=O)oc2c(C=O)c(O)c3c(c12)CCCO3 [Example 7, 6-hydroxy-2-(2-(4-isopropylpiperazin-1-yl)-2-oxoethyl)-1-methyl-3-oxo-3,8,9,10-tetrahydropyrano[3,2-f]chromene-5-carbaldehyde]
IC50: 100 to 200 nM
